From patent publication US20260028354A1, “TETRAHYDRONAPHTHALENE DERIVATIVES AS ESTROGEN RECEPTOR DEGRADERS” (REGENT OF THE UNIVERSITY OF MICHIGAN, priority 2022, published 2026) come the findings set out here.

SMILES strings stand for the structures.

The assay can be described thus: Western blot analysis for "B" compounds. Type of assay: cell-based. Conditions: read-out: Traditional Western Degradation Potency (DC50). In outline: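 Target protein levels given as relative mean band intensity over GAPDH from scanned immunoblots. Lysates of treated cells in RIPA buffer, equalized by BCA, separated on 10% gels and transferred to PVDF.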

As for `O=C1CCC(N2C(=O)c3cc4c(cc3C2=O)CN(C2CCN(C(=O)[C@H]3C[C@H](Oc5ccc([C@@H]6c7ccc(O)cc7CC[C@@H]6c6ccccc6)cc5)C3)CC2)C4)C(=O)N1` (stereo partly drawn) [Compound B285, 2-(2,6-dioxopiperidin-3-yl)-6-(1-((1R,3r)-3-(4-((1R,2S)-6-hydroxy-2-phenyl-1,2,3,4-tetrahydronaphthalen-1-yl)phenoxy)cyclobutane-1-carbonyl)piperidin-4-yl)-6,7-dihydropyrrolo[3,4-f]isoindole-1,3(2H,5H)-dione], the DC50 – broadly, the concentration at which degradation of the target reaches its halfway point – lay within 10 to 100 nM.
The figure for `O=C1CCC(N2Cc3cc4c(cc3C2=O)CN(C(=O)C2CCC(CN3CC(Oc5ccc([C@@H]6c7ccc(O)cc7CC[C@@H]6c6ccccc6)cc5)C3)CC2)C4)C(=O)N1` (stereo partly drawn) [Compound B286, 3-(6-((1R,4r)-4-((3-(4-((1R,2S)-6-hydroxy-2-phenyl-1,2,3,4-tetrahydronaphthalen-1-yl)phenoxy)azetidin-1-yl)methyl)cyclohexane-1-carbonyl)-1-oxo-3,5,6,7-tetrahydropyrrolo[3,4-f]isoindol-2(1H)-yl)piperidine-2,6-dione] is more than 100 nM; for `O=C1CCC(N2C(=O)c3cc4c(cc3C2=O)CN(CC2CCC3(CC2)CCN(C(=O)c2ccc([C@@H]5c6ccc(O)cc6CC[C@@H]5c5ccccc5)cc2)CC3)C4)C(=O)N1` (stereo partly drawn) [Compound B287, 2-(2,6-dioxopiperidin-3-yl)-6-((3-(4-((1R,2S)-6-hydroxy-2-phenyl-1,2,3,4-tetrahydronaphthalen-1-yl)benzoyl)-3-azaspiro[5.5]undecan-9-yl)methyl)-6,7-dihydropyrrolo[3,4-f]isoindole-1,3(2H,5H)-dione] it is more than 100 nM.
For the compound `O=C1CCC(N2C(=O)c3cc4c(cc3C2=O)CN(CC2CCC3(CC2)CN(C(=O)c2ccc([C@@H]5c6ccc(O)cc6CC[C@@H]5c5ccccc5)cc2)C3)C4)C(=O)N1` (stereo partly drawn) [Compound B288, 2-(2,6-dioxopiperidin-3-yl)-6-((2-(4-((1R,2S)-6-hydroxy-2-phenyl-1,2,3,4-tetrahydronaphthalen-1-yl)benzoyl)-2-azaspiro[3.5]nonan-7-yl)methyl)-6,7-dihydropyrrolo[3,4-f]isoindole-1,3(2H,5H)-dione], the DC50 was more than 100 nM.
For `O=C1CCC(N2C(=O)c3cc4c(cc3C2=O)CN(CC2CC3(CCN(C(=O)c5ccc([C@@H]6c7ccc(O)cc7CC[C@@H]6c6ccccc6)cc5)CC3)C2)C4)C(=O)N1` (stereo partly drawn) [Compound B289, 2-(2,6-dioxopiperidin-3-yl)-6-((7-(4-((1R,2S)-6-hydroxy-2-phenyl-1,2,3,4-tetrahydronaphthalen-1-yl)benzoyl)-7-azaspiro[3.5]nonan-2-yl)methyl)-6,7-dihydropyrrolo[3,4-f]isoindole-1,3(2H,5H)-dione], the DC50 was more than 100 nM.
The value for `O=C1CCC(N2C(=O)c3cc4c(cc3C2=O)CN(CC(=O)N2CCC3(CC2)CCN(C(=O)c2ccc([C@@H]5c6ccc(O)cc6CC[C@@H]5c5ccccc5)cc2)CC3)C4)C(=O)N1` (stereo partly drawn) [Compound B290, 2-(2,6-dioxopiperidin-3-yl)-6-(2-(9-(4-((1R,2S)-6-hydroxy-2-phenyl-1,2,3,4-tetrahydronaphthalen-1-yl)benzoyl)-3,9-diazaspiro[5.5]undecan-3-yl)-2-oxoethyl)-6,7-dihydropyrrolo[3,4-f]isoindole-1,3(2H,5H)-dione] was more than 100 nM; that for `O=C1CCC(N2C(=O)c3cc4c(cc3C2=O)CN(CC(=O)N2CCC3(CC2)CN(C(=O)c2ccc([C@@H]5c6ccc(O)cc6CC[C@@H]5c5ccccc5)cc2)C3)C4)C(=O)N1` (stereo partly drawn) [Compound B291, 2-(2,6-dioxopiperidin-3-yl)-6-(2-(2-(4-((1R,2S)-6-hydroxy-2-phenyl-1,2,3,4-tetrahydronaphthalen-1-yl)benzoyl)-2,7-diazaspiro[3.5]nonan-7-yl)-2-oxoethyl)-6,7-dihydropyrrolo[3,4-f]isoindole-1,3(2H,5H)-dione] was more than 100 nM.
With `O=C1CCC(N2C(=O)c3cc4c(cc3C2=O)CN(C2CC3CCC(C2)N3CC2CCN(c3ccc([C@@H]5c6ccc(O)cc6CC[C@@H]5c5ccccc5)cc3)CC2)C4)C(=O)N1` (stereo partly drawn) [Compound B292, 2-(2,6-dioxopiperidin-3-yl)-6-(8-((1-(4-((1R,2S)-6-hydroxy-2-phenyl-1,2,3,4-tetrahydronaphthalen-1-yl)phenyl)piperidin-4-yl)methyl)-8-azabicyclo[3.2.1]octan-3-yl)-6,7-dihydropyrrolo[3,4-f]isoindole-1,3(2H,5H)-dione], the DC50 is more than 100 nM.
`O=C1CCC(N2C(=O)c3cc4c(cc3C2=O)CN(C[C@H]2CC[C@H](C(=O)N3CC(Oc5ccc([C@@H]6c7ccc(O)cc7CC[C@@H]6c6ccccc6)cc5)C3)CC2)C4)C(=O)N1` (stereo partly drawn) [Compound B293, 2-(2,6-dioxopiperidin-3-yl)-6-(((1R,4r)-4-(3-(4-((1R,2S)-6-hydroxy-2-phenyl-1,2,3,4-tetrahydronaphthalen-1-yl)phenoxy)azetidine-1-carbonyl)cyclohexyl)methyl)-6,7-dihydropyrrolo[3,4-f]isoindole-1,3(2H,5H)-dione]: the half-maximal degradation concentration (DC50) was 10 to 100 nM.
The figure for `O=C1CCC(N2Cc3cc4c(cc3C2=O)CN(C[C@H]2CC[C@H](C(=O)N3CC(Oc5ccc([C@@H]6c7ccc(O)cc7CC[C@@H]6c6ccccc6)cc5)C3)CC2)C4)C(=O)N1` (stereo partly drawn) [Compound B294, 3-(6-(((1R,4r)-4-(3-(4-((1R,2S)-6-hydroxy-2-phenyl-1,2,3,4-tetrahydronaphthalen-1-yl)phenoxy)azetidine-1-carbonyl)cyclohexyl)methyl)-1-oxo-3,5,6,7-tetrahydropyrrolo[3,4-f]isoindol-2(1H)-yl)piperidine-2,6-dione] is less than 10 nM; for `O=C1CCC(N2Cc3c(ccc4c3OC[C@H]3CN(C(=O)C5CCN(c6ccc([C@@H]7c8ccc(O)cc8CC[C@@H]7c7ccccc7)cc6)CC5)CCN43)C2=O)C(=O)N1` (stereo partly drawn) [Compound B295, 3-((R)-7-(1-(4-((1R,2S)-6-hydroxy-2-phenyl-1,2,3,4-tetrahydronaphthalen-1-yl)phenyl)piperidine-4-carbonyl)-1-oxo-1,3,5,5a,6,7,8,9-octahydro-2H-pyrazino[1′,2′:4,5][1,4]oxazino[2,3-e]isoindol-2-yl)piperidine-2,6-dione] it is more than 100 nM; for `O=C1CCC(N2C(=O)c3cc4c(cc3C2=O)CC2(C4)CN(CC3CCN(c4ccc([C@@H]5c6ccc(O)cc6CC[C@@H]5c5ccccc5)cc4)CC3)C2)C(=O)N1` (stereo partly drawn) [Compound B296, 2′-(2,6-dioxopiperidin-3-yl)-1-((1-(4-((1R,2S)-6-hydroxy-2-phenyl-1,2,3,4-tetrahydronaphthalen-1-yl)phenyl)piperidin-4-yl)methyl)-5′,7′-dihydro-1′H-spiro[azetidine-3,6′-cyclopenta[f]isoindole]-1′,3′(2'H)-dione] it is more than 100 nM.
With `O=C1CCC(N2C(=O)c3cc4c(cc3C2=O)CC2(C4)CN(C(=O)C3CCN(c4ccc([C@@H]5c6ccc(O)cc6CC[C@@H]5c5ccccc5)cc4)CC3)C2)C(=O)N1` (stereo partly drawn) [Compound B297, 2′-(2,6-dioxopiperidin-3-yl)-1-(1-(4-((1R,2S)-6-hydroxy-2-phenyl-1,2,3,4-tetrahydronaphthalen-1-yl)phenyl)piperidine-4-carbonyl)-5′,7′-dihydro-1′H-spiro[azetidine-3,6′-cyclopenta[f]isoindole]-1′,3′(2'H)-dione], the DC50 is more than 100 nM.
